The record followed here is PMC11558679, “Artificial Zymogen Based on Protein–Polymer Hybrids” (Biomacromolecules, 2024).

Read-outs that look alike come from different tables or passages of the source. Square brackets hold non-standard residues; d marks the D form. Peptide text beside a SMILES is read from it. * marks the point of attachment. OEGMA = oligo(ethylene glycol) methacrylate; PEG4 = NCCOCCOCCOCCOCCC(=O)O; Tos = Cc1ccc(S(=O)(=O)*)cc1; Isobutyryl = CC(C)C(=O)*; NHBn = c1ccc(CN*)cc1; Sar = CNCC(=O)O

Assay type in all cases: biochemical, bovine
For one experiment, the target named is T1, native trypsin (Bos taurus, UniProt P00760).
T1 construct: purchased Sigma-Aldrich; host or cells: bovine pancreas
T1 sequence (P00760 24-246): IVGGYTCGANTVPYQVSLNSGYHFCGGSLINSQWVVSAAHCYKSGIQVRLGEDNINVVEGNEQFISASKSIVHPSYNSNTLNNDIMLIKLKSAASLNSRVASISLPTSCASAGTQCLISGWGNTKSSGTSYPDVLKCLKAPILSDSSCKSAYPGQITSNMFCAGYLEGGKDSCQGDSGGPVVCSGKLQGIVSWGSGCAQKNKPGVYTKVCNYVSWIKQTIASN
Put plainly: Inhibition of native trypsin by model peptide inhibitor and macromonomer. To be noted: for Ki: substrate Tos-GPR-pNA, 100 mM Tris-HCl and 20 mM CaCl2 (pH 8.0), 37 °C, [TR]0 = 8.4 nM, from secondary plot KM/Vmax app vs [I]0; for Km: read-out: apparent KM. An excerpt: (§1) Co mparison of K M of peptide substrates and K i of model peptide inhibitors and ma cro mono mers against native trypsin and chymotrypsin.
(§2) By observing the initial rate of enzyme activity in the presence of th e peptide inhibitor or macromonomer, the K i value of the inhibitor peptide and macromonomers can be determined (Figures S9 for native trypsin,and S14 for native ch ymotrypsin). The apparent KM and Vmax values are obtained b y si multaneousl y mixing nat ive trypsin or ch ymotr ypsin, a peptide substrat e, and a peptide inhibitor, and then monitoring the pNA produced b y enzymatically catal yzed hydrol ysis of the p eptide substrate. The apparent KM and Vmax values were calculated using EnzFitter with Michaelis-Menten curve fitting of substrate against initial velocity plots ( Fi g u re S10 and S12 and Table S1 and S2 for native trypsin, and Figure S15 and S17 and T ab l e S3 and S4 for native ch ymotr ypsin ). The plot of K M ass/Vma x app versus [I]0 or [macromonomers]0 yields a straight line with a y-intercept of K M/Vmax and a slope of K M/(Vmax ·Ki) (Figures S11 and S13 for native tr ypsin and S1 6 and S18 for native ch ymotrypsin, respsctiver y ). The inhibition constant (Ki) of the peptide inhibi tor or macromonomer was calculated b y simply dividing the y -inter cept […]
(1 picture or pasted object on this page, not shown here)
Table S1. Apparent KM a nd Vma x values for native trypsin incubated with Tos-GPR-pNA (substrate) and Tos-GPRP -NHBzl (inhibitor) at 37 °C in 100 mM Tris-HCl and 20 mM CaCl2 buffer (pH 8.0) […]
Buffer: 100 mM Tris-H Cl a nd 20 mM Ca Cl2 (pH 8.0) at 37 °C, [TR]0 = 8.4 nM, [TosGPRpNA]0 = 0 – 302 µ M a nd [TosGP RP Bzl]0 = 0 – 500 µM, Monitor Abs at 412 nm.
Figure S11. Secondary plot with calculated apparent K M and Vmax values were used to determine inhibition constants of the peptide inhibitor towards native trypsin.
Figure S12. Michaelis-Menten Plots adding a the macromonomer containing a CT -cleavable and a TR-inhibiting peptides (T o s GPRPr o -PEG4-AAPFAA OE GMA) to a native trypsin solution.
Table S2. Apparent KM a nd Vma x values for native trypsin incubated with Tos-GPR-pNA (substrate) and the macromonomer containing a CT -cleavable and a TR-inhibiting peptides (TosGPRPro-PEG4-AAPFAA OEGMA) at 37 °C in 100 mM Tris -HCl and 20 mM CaCl2 buffer (pH 8.0) .
Buffer: 100 mM Tris-H Cl a nd 20 mM Ca Cl2 (pH 8.0) at 37 °C, [TR]0 = 8.4 nM, [TosGPRpNA]0 = 0 – 241 µ M a nd [ macro mono mer]0 = 0 – 200 µM, Monitor Abs at 412 nm.

The target in another experiment is T2, native chymotrypsin (Bos taurus, UniProt P00766).
T2 construct: α-Chymotrypsin from bovine pancreas, Type II (CT); purchased Sigma-Aldrich; host or cells: bovine pancreas
Put plainly: Inhibition of native chymotrypsin by model peptide inhibitor and macromonomer. To be noted: for KM/Vmax / apparent Vmax / kcat / kcat/KM / Km: [sucAAPFpNA]0 = 0–768 µM; for Km: read-out: apparent KM.
From the text: as §1, §2
Figure S1 5 .Michaelis -Menten Plots adding a peptide inhibitor to a native c hymot r yps i n s ol ut i on.
Table S3. Apparent KM a nd Vma x values for native […] incubated with suc-AAPF -pNA ( subst r at e) and IB -AAPFSar-OMe (inhibitor) at 37 °C in 100 mM sodium phosphate buffer (pH 8.0) […]
Buffer: 100 mM sodium phosphate (pH 8.0) at 37 °C, [CT]0 = 40 nM, [sucAAPFpNA]0 = 0 – 768 µ M and [IBAAPFSarOMe]0 = 0 – 500 µM, Monitor Abs at 412 nm.
Table S4. Apparent KM a nd Vma x values for native […] incubated with suc-AAPF -pNA ( subst r at e) and macromonomer containing a TR cleavable and CT inhibiting peptides
(IBAAPFSarPEG4GPRGGOEGMA) at 37 °C in 100 mM sodium phosphate buffer (pH 8.0) . […]
macro mono mer]0 = 0 – 400 µM, Monitor Abs at 412 nm.
Figure S18. Michaelis -Menten Plots adding a macromonomer containing a TR cleavable and CT inhibiting peptides (IBAAPFSarPEG4GPRGGOEGMA) to a native chymotrypsin solution.

The nature of experiment [1]: Biocatalytic assay (Michaelis–Menten) of TR and TR hybrids with Tos-Gly-Pro-Arg-pNA. To be noted: rounded value in comparison with Ki; read-out: KM of the peptide substrate for native TR. As for the experimental part:
N-Tosyl-L-Gly-L-Pro-L-Arg-p-nitroanilide was used as a substrate for enzyme bioactivity assays. In a cuvette, 0.1 M Tris HCl and 20 mM calcium chloride buffer (890–990 μL, pH 8.0), substrate (0–100 μL, 2 mg/mL in DMSO), and enzyme (10 μL, 0.02 mg TR/mL in 100 mM Tris–HCl and 20 mM calcium chloride (pH 8.0), 8.4 nM as final concentration) were mixed for enzyme bioactivity assays. The rate of hydrolysis was determined by recording the increase in absorbance at 412 nm for the first 45 s after mixing. KM and kcat values were calculated using Enzfitter software when plotting substrate concentration versus initial hydrolysis velocity. […]
Table S5. Char acterization and enzymatic activity of TR-pCBMA and inhibited pro- T R pol ymer h ybr i ds with different linkers between the inhibitory and cleavable peptide moieties.
SEC-M ALLS anal ysi s Michaelis-Menten parameters d
Mnb Mwb Đb DPc KM kcat kcat/KM samples kg mol-1 kg mol-1 (CBM A/inhibitor) (µM) (s-1) (µM-1 s-1) […]
SEC -MALLS and 1H NMR spectra. d conditions: [TR]0 = 8.4 nM, [Tos-GPR-pNA]0 = 0 - 302 µM, buffer 100 mM Tris-HCl and 20 mM CaCl2 (pH 8.0) at 37 °C. […]

Setting [2] is: [macromonomer]0 = 50 µM, [TosGPRpNA]0 = 0–241 µM.
[3] abbreviates: [macromonomer]0 = 100 µM, [TosGPRpNA]0 = 0–241 µM.
Setting [4] is: [macromonomer]0 = 150 µM, [TosGPRpNA]0 = 0–241 µM.
Setting [5] is: [macromonomer]0 = 200 µM, [TosGPRpNA]0 = 0–241 µM.

Turning to `Cc1ccc(S(=O)(=O)NCC(=O)N2CCC[C@H]2C(=O)N[C@@H](CCCNC(=N)N)C(=O)N2CCC[C@H]2C(=O)NCc2ccccc2)cc1` [Tos-Gly-Pro-Arg-Pro-NHBzl] (Tos-GPRP-NHBn), the KM/Vmax on native trypsin ([inhibitor]0 = 125 µM, [TosGPRpNA]0 = 0–302 µM) is 48.3 ± 4.1 s; on native trypsin ([inhibitor]0 = 250 µM, [TosGPRpNA]0 = 0–302 µM) it was 56.3 ± 5.0 s; on native trypsin ([inhibitor]0 = 375 µM, [TosGPRpNA]0 = 0–302 µM) it was 73.4 ± 3.7 s; at native trypsin ([inhibitor]0 = 500 µM, [TosGPRpNA]0 = 0–302 µM), 84.3 ± 6.0 s. The same molecule displayed a Ki at native trypsin (native TR) of 430 µM.

Take `COC(=O)CN(C)C(=O)[C@H](Cc1ccccc1)NC(=O)[C@@H]1CCCN1C(=O)[C@H](C)NC(=O)[C@H](C)NC(=O)C(C)C` [isobutyryl-Ala-Ala-Pro-Phe-Sar-OMe] (Isobutyryl-AAPF[Sar]-OMe): on native chymotrypsin, the Ki is 660 µM. Further, the KM/Vmax at native chymotrypsin ([inhibitor]0 = 125 µM) came out at 62.9 ± 6.8 s; at native chymotrypsin ([inhibitor]0 = 250 µM), 75.9 ± 11.5 s; on native chymotrypsin ([inhibitor]0 = 375 µM), 84.8 ± 12.7 s; at native chymotrypsin ([inhibitor]0 = 500 µM), 99.6 ± 11.7 s.

Take “IB-Ala-Ala-Pro-Phe-Sar-PEG4-Gly-Pro-Arg-Gly-Gly-OEGMA [IBAAPFSarPEG4GPRGGOEGMA]”: on native chymotrypsin ([macromonomer]0 = 100 µM), the KM/Vmax was 61.8 ± 6.2 s, the “apparent Vmax” value was determined as 1.25 ± 0.03 µM/s, the kcat stood at 34.8 ± 0.8 s⁻¹ and the kcat/KM came out at 450000 ± 50000 M⁻¹ s⁻¹. Moreover, the Km on native chymotrypsin ([macromonomer]0 = 100 µM) is 77.5 ± 7.6 µM. For the same molecule, at native chymotrypsin ([macromonomer]0 = 200 µM), the KM/Vmax is 65.3 ± 6.9 s, the “apparent Vmax” value amounted to 1.25 ± 0.03 µM/s, the kcat was found to be 34.9 ± 0.8 s⁻¹ and the kcat/KM is 430000 ± 40000 M⁻¹ s⁻¹. For the same molecule, at native chymotrypsin ([macromonomer]0 = 200 µM), the Km amounted to 82.1 ± 8.4 µM. In addition, at native chymotrypsin ([macromonomer]0 = 300 µM), the KM/Vmax was determined as 72.9 ± 7.1 s, the “apparent Vmax” value stood at 1.18 ± 0.03 µM/s, the kcat was determined as 32.8 ± 0.7 s⁻¹ and the kcat/KM is 380000 ± 730000 M⁻¹ s⁻¹. Moreover, the Km at native chymotrypsin ([macromonomer]0 = 300 µM) amounted to 86.1 ± 8.1 µM. Besides, at native chymotrypsin ([macromonomer]0 = 400 µM), the KM/Vmax is recorded as 89.4 ± 11.8 s, the “apparent Vmax” value was found to be 1.12 ± 0.04 µM/s, the kcat stood at 31.0 ± 1.0 s⁻¹ and the kcat/KM was 310000 ± 40000 M⁻¹ s⁻¹. The Km at native chymotrypsin ([macromonomer]0 = 400 µM) turned out to be 99.7 ± 12.6 µM. The “Ki relative to KM (90 μM) of suc-Ala-Ala-Pro-Phe-pNA” value at native chymotrypsin (native CT) is 2.8 fold. For the same molecule, the Ki with native chymotrypsin (native CT, substrate suc-AAPF-pNA, 100 mM sodium phosphate (pH 8.0), 37 °C, [CT]0 = 40 nM, from secondary plot KM/Vmax app vs [I]0, read-out: Ki) came out at 260 µM.

Take “N-Tosyl-glycyl-L-prolyl-L-arginine p-nitroanilide acetate salt [Tos-Gly-Pro-Arg-pNA, reference compound]”: the Km in experiment [1] turned out to be 20 µM.

Turning to “Tos-Gly-Pro-Arg-Pro-PEG4-Ala-Ala-Pro-Phe-Ala-Ala-OEGMA (Tos-GPRP[PEG4]AAPFAA-{OEGMA}) [TosGPRPro-PEG4-AAPFAA OEGMA]”, in the experiment with native trypsin (native TR), the Ki stood at 150 µM.

As to “Tos-Gly-Pro-Arg-Pro-PEG4-Ala-Ala-Pro-Phe-Ala-Ala-OEGMA [TosGPRPro-PEG4-AAPFAA OEGMA]”, at native trypsin (setting [2]), the KM/Vmax is 62.9 ± 7.3 s, the “apparent Vmax” value is 0.45 ± 0.02 µM/s, the kcat is 53.4 ± 2.3 s⁻¹ and the kcat/KM was found to be 1.89e+06 ± 310000 M⁻¹ s⁻¹. The Km at native trypsin (setting [2]) is 28.2 ± 4.5 µM. Further, on native trypsin (setting [3]), the KM/Vmax is 77.9 ± 6.3 s, the “apparent Vmax” value came out at 0.24 ± 0.01 µM/s, the kcat was found to be 28.7 ± 0.7 s⁻¹ and the kcat/KM was found to be 1.53e+06 ± 170000 M⁻¹ s⁻¹. Further, the Km at native trypsin (setting [3]) was determined as 18.8 ± 2.1 µM. Also, at native trypsin (setting [4]), the KM/Vmax came to 86.3 ± 7.8 s, the “apparent Vmax” value was found to be 0.31 ± 0.01 µM/s, the catalytic constant (kcat) amounted to 36.5 ± 1.4 s⁻¹ and the specificity constant (kcat/KM) was 1.38e+06 ± 180000 M⁻¹ s⁻¹. Further, the Km at native trypsin (setting [4]) stood at 26.4 ± 3.2 µM. For the same molecule, at native trypsin (setting [5]), the KM/Vmax came out at 97.7 ± 12.1 s, the “apparent Vmax” value was found to be 0.36 ± 0.02 µM/s, the kcat turned out to be 43.3 ± 2.1 s⁻¹ and the catalytic efficiency (kcat/KM) was 1.22e+06 ± 210000 M⁻¹ s⁻¹. Besides, on native trypsin (setting [5]), the Km was found to be 35.5 ± 6 µM. Further, at native trypsin (native TR), the “Ki relative to KM (20 μM) of Tos-Gly-Pro-Arg-pNA” value is listed as approximately 7.5 fold.
